Data: US20260256799A1, “INHIBITORS FOR TREATING SOLID TUMOURS” (UNIVERSITY OF SOUTHAMPTON, priority 2023, published 2026)

What was measured:
[1] = tested on: TC-1 cells + TGF-β1-treated murine lung fibroblasts (myoMLF); assay: Isograft model TC-1 + myoMLF (myoCAF-high tumours); assay type: in vivo, C57/BL6 female mice
Description: SMA immunohistochemistry (IHC; Sigma Aldrich; A2547) on FFPE tissues was performed as previously: in brief, tissues were fixed in 4% paraformaldehyde and embedded in paraffin. 4 μm sections were de-paraffinized, rehydrated and antigen retrieved for 20 minutes at 97° C. using a predefined program on the Dako PT links. Antigen retrieval was performed using Envision FLEX High pH. Endogenous peroxidase activity was blocked using 3% hydrogen peroxide. Mouse Ig blocking reagent (M.O.M kit vector labs) was applied for 1 hour. Primary antibody incubation (1:100) in M.O.M diluent (vector labs) was for 20 minutes. For secondary amplification, M.O.M. Biotinylated anti-Mouse IgG reagentwas applied for 10 minutes followed by Vectorstain elite ABC reagent (vector labs). Chromogenic visualization was completed with 2×5 minute washes in DAB and counterstaining with Haematoxylin. For IHC of CD8 (in house; YTS169), CD4 (BD; RM4-5) and F480 (AbD Serotec; CI:A3-1) tissues were frozen in OCT. 8 μm sections were fixed in 100% acetone for 10 minutes. Endogenous peroxidase activity was blocked using neat peroxidase suppressor (Peirce) for 15 minutes. Sections were blocked for 30 minutes with 2.5% goat serum. Primary antibodies were applied for 2 hours −CD8 (1:800), CD4 (1:100), F480 (1:100). Appropriate species HRP polymer (ImmunoPress, Vector Laboratories) was applied to sections for 30 minutes. Vector NovaRED chromagen substrate (Vector Laboratories) was applied for 2-10 minutes then counterstained with haematoxylin (Vector Laboratories) for 30 seconds. Images were captured using an Olympus CKX41 microscope with Cell B imaging software. % area of staining was calculated using Fiji software (java) by running the ‘color deconvolution’ tool analyzing H DAB. The image was appropriately thresholded based on the ‘color 2’ image. The same thresholding was applied to all images from the same experiment. Regions of interest (margin & core) were confirmed by a pathologist, and each point plotted represents the mean of a minimum of 4 independent fields of view (field diameter=2 mm) from margin and core (one section per mouse). The mean was calculated from 2 or 3 mice/experimental group.
Quantification of SMA staining in mouse tumours was carried out using color thresholding and deconvolution in Fiji. At least three independent fields of view (FoV) of at least three tumours were randomly selected by a consultant pathologist (GJT) to generate a mean value per tumour representing the SMA-positive area %, which was compared between treatment groups.
CD8 and CD4 IHC was performed on frozen tissue embedded in OCT using [YTS169 (CD8; in house) and RM4-5 (CD4; BD) (FIG. 6c & FIG. 12e). 8 μm sections were fixed in 100% acetone for 10 minutes and stained as previously shown. CD8 and CD4 IHC on FFPE was performed using 98941S and 25229S respectively (Cell Signaling; FIG. 6a,g,k,o and FIG. 12a-c,g & 13m,o) using the Leica Bond system according to the manufacturer's instructions (Protocol F mouse 4; HIER 20 MINUTES ER1; Temperature-Ambient; 1:100 dilution; 20 min of NGS blocking incubation). CD8 and CD4 T-cells were counted from ten randomly selected fields of view (FoV) from the tumour by a consultant pathologist (GJT).
(§1) All mouse experiments were performed according to national and international guidelines and were approved by the authors' institutional review board and the UK Home Office. Xenograft model: 6.7×10^5 PT cells±2×10^6 HFFF2 cells were resuspended in 100 μl PBS and injected s.c. in the flank of partially immunocompromised, male RAG1−/−C57BL/6 mice (3-5 months old). Isograft models: 0.5×10^5 TC-1 cells±3×10^5 TGF-β1-treated murine lung fibroblasts (myoMLFs) or 1×10^5 MC38 cells±5×10^5 TGF-β1-treated murine colon fibroblasts (myoMCFs) were resuspended in 100 μl PBS and injected s.c. in the flank of C57/BL6 female mice (6-8 weeks old). 5-8 animals for both models were used per group. […]

TC-1 cells = assay: Isograft model TC-1 alone (control, myoCAF-low tumours); assay type: in vivo, C57/BL6 female mice; details: AZD0156 20 mg/Kg oral gavage daily
Description: as §1, with “group. Tumour size was measured over time using an electronic caliper and calculated using the formula 4π/3×r3 [radius (r) calculated from the average diameter, measured as the tumour width and length].” for “group.”
The area under the curve (AUC) for each individual tumour within a treatment group for multiple experiments was analyzed by ordinary Two-way Anova using as two independent variables ‘the experiments’ (factor 1) and ‘the treatments’ (factor 2), and as dependent variable ‘the AUC’ of each mouse; then, the inventors looked at just factor 2. […]

[2] = tested on: MC38 cells + TGF-β1-treated murine colon fibroblasts (myoMCF); assay: Isograft model MC38 + myoMCF (myoCAF-high tumours); assay type: in vivo, C57/BL6 female mice; details: AZD0156, myoCAF-high MC38 tumours
Description: SMA immunohistochemistry (IHC; Sigma Aldrich; A2547) on FFPE tissues was performed as previously: in brief, tissues were fixed in 4% paraformaldehyde and embedded in paraffin. 4 μm sections were de-paraffinized, rehydrated and antigen retrieved for 20 minutes at 97° C. using a predefined program on the Dako PT links. Antigen retrieval was performed using Envision FLEX High pH. Endogenous peroxidase activity was blocked using 3% hydrogen peroxide. Mouse Ig blocking reagent (M.O.M kit vector labs) was applied for 1 hour. Primary antibody incubation (1:100) in M.O.M diluent (vector labs) was for 20 minutes. […] Images were captured using an Olympus CKX41 microscope with Cell B imaging software. % area of staining was calculated using Fiji software (java) by running the ‘color deconvolution’ tool analyzing H DAB. […] The mean was calculated from 2 or 3 mice/experimental group.
Quantification of SMA staining in mouse tumours was carried out using color thresholding and deconvolution in Fiji. […]
CD8 and CD4 IHC was performed on frozen tissue embedded in OCT using [YTS169 (CD8; in house) and RM4-5 (CD4; BD) (FIG. 6c & FIG. 12e). […] CD8 and CD4 T-cells were counted from ten randomly selected fields of view (FoV) from the tumour by a consultant pathologist (GJT). […]

[3] = monotherapy, dose escalation phase 1; cited from earlier work
[4] = AZD0156 20 mg/Kg oral gavage daily
[5] = AZD0156, myoCAF-high TC-1 tumours

CN(C)CCCOc1ccc(-c2ccc3ncc4c(c3c2)n(C2CCOCC2)c(=O)n4C)cn1 [AZD0156]
myofibroblast accumulation (SMA IHC) [1, 4]: suppressed
tumour growth [1, 4]: slowed
CD4 T-cell infiltration (IHC) [1, 5]: unaffected
location of CD8 T-cells, tumour periphery to tumour core (IHC) [1, 5]: significant relocation
CD8 T-cell phenotype/function (flow cytometry) ([1]; AZD0156, myoCAF-high tumours): did not affect
overall survival ([1]; AZD0156 daily at day 15-28): improved
intratumoural myoCAF accumulation ([1]; AZD0156 monotherapy in the RAH vaccine experiment): effective in reducing
growth of control (myoCAF-low) tumours (TC-1 cells): minimal effect
CD4 T-cell infiltration (IHC) [2]: unaffected
location of CD8 T-cells, tumour periphery to tumour core (IHC) [2]: significant relocation
adverse effects [3]: not yet reporting to be associated with adverse effects
